Here are results for two substances from PMC11566078, “Bactericidal activities and biochemical features of 16 antimicrobial peptides against bovine-mastitis causative pathogens” (Veterinary Research, 2024).

Where two headings read alike, the source gives them in different places. Where no end group is shown, it is not given here.

Data set [1] relates to Corynebacterium simulans. As to the kind of experiment: microbe, parasite or virus in culture. It is filed as cell-based. Conditions: 6 h. On the procedure: (§1) All plates were cultivated aerobically.
(§2) Experiments were conducted in triplicate.

Data set [2] deals with Glutamicibacter halophytocola. Description: microbe, parasite or virus in culture. It is filed as cell-based. Conditions: 6 h. On the procedure:
as §1, §2

Data set [3] deals with Staphylococcus chromogenes. Description: microbe, parasite or virus in culture. It is filed as cell-based. To be noted: 6 h. How it is done: as §1, §2
Data set [4] has as its system Staphylococcus epidermidis. As to the kind of experiment: microbe, parasite or virus in culture. It is filed as cell-based. To be noted: 6 h. On the procedure:
as §1, §2

Data set [5] deals with Staphylococcus xylosus. As to the kind of experiment: microbe, parasite or virus in culture. It is filed as cell-based. Conditions: 6 h. How it is done: as §1, §2
Data set [6] has as its system Streptococcus uberis. Description: microbe, parasite or virus in culture. It is filed as cell-based. Conditions: 6 h. How it is done: as §1, §2
Data set [7] concerns Aeromonas hydrophila. As to the kind of experiment: microbe, parasite or virus in culture. It is filed as cell-based. Conditions: 6 h. How it is done:
as §1, §2

Data set [8] deals with E. coli (ATCC 25922). It is filed as in vitro ADME, Escherichia coli. On the procedure: (§3) The MICs against E. coli (ATCC 25922) for cc-CATH3, ML-CATH, and PD-CATH in 150 mM NaCl and different pH (pH 5, 6, and 7) that were adjusted using acetic acid (Sigma Aldrich) were determined as described above. For serum stability assay, each AMP at four different concentrations was dissolved in 50% (v/v) FBS (Hyclone™) and incubated at 37 °C for 0, 60, and 120 min, respectively. As described in a previous study, ΔHg-CATH was used as a control for serum sensitivity. The antimicrobial activity of cc-CATH3, ML-CATH, and PD-CATH against E. coli was assessed for each condition as above. All experiments were conducted in triplicate.
Figure 2 Changes in the antibacterial activity of cc-CATH3, ML-CATH, and PD-CATH after incubation with naïve serum. cc-CATH3, ML-CATH, and PD-CATH peptides were incubated in 50% (v/v) FBS each for 0, 60, and 120 min before applying to antimicrobial activity assay against E. coli (ATCC 25922). The antimicrobial activity was determined by measuring bacterial growth at OD 450 nm. The X and Y axes indicate peptide concentration and absorbance at 450 nm, respectively. Samples containing 50% FBS in the absence of the peptides indicate a control for bacterial growth without AMP treatments. The antimicrobial activity of cc-CATH3 (A), ML-CATH (B), and PD-CATH (C) after the treatment of FBS-incubated AMPs was shown.

Data set [9] concerns eight standard bacterial strains. It is filed as cell-based. To be noted: all eight standard strains; range stated for the three peptides. How it is done: The standard bacterial strains used for antimicrobial activity assays include Staphylococcus aureus ATCC (American Type Culture Collection, Manassas, VA, USA) 6538, Bacillus cereus ATCC 10876, Enterococcus faecalis ATCC 29212, Streptococcus […] 27956, Streptococcus dysgalactiae ATCC 27957, Streptococcus equi subsp. zooepidemicus ATCC 43079, Escherichia coli ATCC 25922, and Pseudomonas aeruginosa ATCC 27853. Most bacterial strains were cultured in LB medium except for E. faecalis and streptococci, which were cultivated in brain heart infusion (BHI) broth (BD Bioscience). […] Experiments were conducted in triplicate.

Data set [10] relates to Streptococcus dysgalactiae ATCC 27957. As to the kind of experiment: microbe, parasite or virus in culture. To be noted: ATCC 27957, 6 h. It is filed as cell-based. The method, boiled down: (§4)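 Strains grown in LB medium, except E. faecalis and streptococci, which were grown in brain heart infusion broth. Run in triplicate.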
Data set [11] relates to Pseudomonas aeruginosa ATCC 27853. Description: microbe, parasite or virus in culture. Conditions: ATCC 27853, 6 h. It is filed as cell-based. The method, boiled down:
as §4

Data set [12] concerns Streptococcus agalactiae ATCC 27956. As to the kind of experiment: microbe, parasite or virus in culture. It is filed as cell-based. Conditions: ATCC 27956, 6 h. The method in brief:
as §4

Data set [13] has as its system Streptococcus equi subsp. zooepidemicus ATCC 43079. Description: microbe, parasite or virus in culture. It is filed as cell-based. Conditions: ATCC 43079, 6 h. The method, boiled down: as §4
Data set [14] has as its system Staphylococcus aureus ATCC 6538. As to the kind of experiment: microbe, parasite or virus in culture. It is filed as cell-based. To be noted: ATCC 6538, 6 h. The method, boiled down:
as §4

Data set [15] relates to Bacillus cereus ATCC 10876. As to the kind of experiment: microbe, parasite or virus in culture. It is filed as cell-based. To be noted: ATCC 10876, 6 h. The method in brief: (§5)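 Triplicate antimicrobial testing. Media: BHI for streptococci and E. faecalis, LB otherwise.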
The subject of data set [16] is Enterococcus faecalis ATCC 29212. Description: microbe, parasite or virus in culture. It is filed as cell-based. Conditions: ATCC 29212, 6 h. The method, boiled down:
as §5

Data set [17] deals with PK15 and HaCaT cells.
Experimental: (§6) Human keratinocytes (HaCaT) and pig kidney fibroblast cells (PK15, ATCC CCL-33) were cultured in Dulbecco’s modified Eagle’s medium (DMEM; Hyclone™, Logan, UT, USA) and supplemented with 10% foetal bovine serum (FBS; Hyclone™, Logan, UT, USA), 1% penicillin–streptomycin (Hyclone™) at 37 °C, and 5% CO2 up to 80% confluence. Cell substratum adhesion was disrupted using Accutase (Innovative Cell Technologies, San Diego, CA, USA). A total of 4 × 10^4 cells were incubated for 24 h at 37 °C and 5% CO2 in each well of a 96-well plate containing 64 and 160 µg/mL of each peptide.
(§7) A positive control for complete cell lysis was established using Triton-X100 (1%), and untreated cells were used as the negative control. After incubation, the medium was removed from the wells and replaced with 10 µL of colouring solution (Cell Proliferation Reagent WST-1™) and 100 µL of DMEM (Hyclone™), per the manufacturer’s protocol. Each well absorbance was measured at 440 nm (peptide-treated and control) and 650 nm (background). These measurements were recorded as the optical density (OD) using a microplate reader (xMark™ spectrophotometer; Bio-Rad, CA, USA). Cell viability was calculated using the following equation: CellViability(%)=100×(ODpeptide-ODbackground)/(ODnegative-ODbackground)
(§8) All experiments were performed in triplicate.
The test system of data set [18] is E. coli (ATCC 25922). It is filed as cell-based, Escherichia coli. To be noted: ATCC 25922. How it is done: as §2, §3
The test system of data set [19] is HaCaT cells. As to the kind of experiment: Cytotoxicity, WST-1 cell viability. Conditions: 24 h, 37 °C, repeated three times.
Experimental: as §6, §7, §8
For data set [20], the system named is field isolates from milk with high SCCs. Conditions: all field isolates except A. hydrophila; range stated for the three peptides.
Experimental: The minimum inhibitory concentration (MIC) was determined by following the manufacturer’s protocol and Clinical and Laboratory Standards Institute (CLSI) guidelines (2018) using a colourimetric method specified by the Microbial Viability Assay Kit-WST (Dojindo, Kumamoto, Japan). Four colonies of each bacterium were inoculated into 5 mL of LB medium and incubated at 37 °C for 4–6 h. The cells were then washed twice with sterile saline (0.9% NaCl) and seeded into a single well of a 96-well plate at a density of 1.5 × 10^5 cells/well, adjusting by McFarland standard 0.5. Subsequently, 180 µL/well of fresh MH broth (BD Bioscience) was added to the plate. Ampicillin, chloramphenicol, and gentamicin sulfate were used as controls for antimicrobial activity.
Different concentrations of each peptide and reference antibiotics (up to 40 µg/mL) were serially diluted in 10 µL of MH broth and added to each well. The plate was incubated at 37 °C for 6 h, using BHI broth to culture slow-growing fastidious strains, including E. faecalis, A. hydrophila, C. simulans, G. halophytocola, and streptococci. Cation-adjusted Mueller Hinton II broth (CAMHB) was employed to cultivate P. aeruginosa. Afterwards, 10 µL of the colouring reagent was added, and cells were incubated at 37 °C for 2 h. UV absorbance was measured for each well at 450 nm using a microplate spectrophotometer (xMark spectrophotometer; Bio-Rad, Hercules, CA, USA). The MIC values were determined when the absorbance difference between treatments and blanks (media and colouring reagent only) decreased to < 0.05. Experiments were conducted in triplicate.
Data set [21] has as its system PK15 cells. Description: Cytotoxicity, WST-1 cell viability. Conditions: 24 h, 37 °C, repeated three times. In general terms: Formazan colour is commonly taken as a measure of viable cells.
Experimental: as §6, §7, §8
Data set [22] has as its system bovine erythrocytes. Description: Haemolytic activity. It is filed as cell-based. Conditions: OD 410 nm, repeated three times. On the procedure: The experimental procedures were conducted in accordance with the guidelines approved by the Institutional Animal Care and Use Committee (IACUC) of Konkuk University, Seoul, Korea, and bovine blood was collected from a cow at a local farm using a BD Vacutainer® Sodium Heparin (BD Bioscience) to analyse haemolytic activity. Plasma was removed from the whole blood by centrifugation. Erythrocytes were washed thrice with phosphate-buffered saline (PBS, pH 7.4) and resuspended in PBS at a concentration of 2% (v/v). Subsequently, 100 µL of the erythrocyte suspension was added to each well of a 96-well microtiter plate. The plate contained an equal volume of the peptides in PBS with different concentrations of 10, 20, 40, 80, and 160 μg/mL. Triton-X 100 (1%) and PBS were used as positive and negative controls, respectively. Plates were incubated at 37 °C for 1 h. The release of haemoglobin into the supernatant was monitored by measuring the change in OD at 410 nm using a microplate reader (xMark™ spectrophotometer; Bio-Rad). Results from three independent experiments were pooled. Hemolysis was calculated using the formula: HemolyticPercentage(%)=100×(ODpeptide-ODnegative)/(ODpositive-ODnegative)
All experiments were carried out in triplicate.

Data set [23] deals with all bacterial strains in the panel and field isolates from milk. It is filed as cell-based. Conditions: against all bacterial strains in the panel and field isolates from milk. On the procedure: The standard bacterial strains used for antimicrobial activity assays include Staphylococcus aureus ATCC (American Type Culture Collection, Manassas, VA, USA) 6538, Bacillus cereus ATCC 10876, Enterococcus faecalis ATCC 29212, Streptococcus agalactiae ATCC 27956, Streptococcus dysgalactiae ATCC 27957, Streptococcus equi subsp. zooepidemicus ATCC 43079, Escherichia coli ATCC 25922, and Pseudomonas aeruginosa ATCC 27853. Most bacterial strains were cultured in LB medium except for E. faecalis and streptococci, which were cultivated in brain heart infusion (BHI) broth (BD Bioscience).
as §1, §2

In data set [24] the test system is HaCaT cells.
Experimental: as §6, §7, §8
Data set [25] relates to PK15 cells.
Experimental: as §6, §7, §8

With “RVRRFWPLVPVAINTVAAGINLYKAIRRK [cc-CATH3]”, the “Minimal inhibitory concentration, Corynebacterium simulans” value in [1] is given as 0.8 (0.2) μg/mL. In addition, the “Minimal inhibitory concentration, Glutamicibacter halophytocola” value in data set [2] is recorded as 2 (0.6) μg/mL. Further, in data set [3], the “Minimal inhibitory concentration, Staphylococcus chromogenes” value is listed as 3 (0.9) μg/mL. The “Minimal inhibitory concentration, Staphylococcus epidermidis” value in data set [4] is listed as 2 (0.6) μg/mL. In addition, the “Minimal inhibitory concentration, Staphylococcus xylosus” value in data set [5] is 2 (0.6) μg/mL. Also, in data set [6], the “Minimal inhibitory concentration, Streptococcus uberis” value is listed as 4 (1.2) μg/mL. Moreover, in [7], the “Minimal inhibitory concentration, Aeromonas hydrophila” value is > 160 (47.4) μg/mL. In addition, the “antibacterial activity after incubation with serum” value in [8] is “significantly affected in concentrations lower than 3 × MIC”. Also, in data set [9], the “MICs, range over all bacterial species in the test panel” value fell in the range of 2 to 42 µg/mL. For the same substance, the “Minimal inhibitory concentration, Streptococcus dysgalactiae” value in data set [10] is given as 7 (2.0) μg/mL. The “Minimal inhibitory concentration, Pseudomonas aeruginosa” value in data set [11] is reported as 4 (1.28) μg/mL. For the same substance, in data set [12], the “Minimal inhibitory concentration, Streptococcus agalactiae” value is recorded as 4 (1.28) μg/mL. In [13], the “Minimal inhibitory concentration, Streptococcus equi subsp. zooepidemicus” value is reported as 5 (1.5) μg/mL. The “Minimal inhibitory concentration, Staphylococcus aureus” value in data set [14] was 2 (0.6) μg/mL. In data set [15], the “Minimal inhibitory concentration, Bacillus cereus” value is 4 (1.28) μg/mL. In addition, in [16], the “Minimal inhibitory concentration, Enterococcus faecalis” value is recorded as 5 (1.5) μg/mL. For the same substance, in data set [17], the “cell viability of PK15 and HaCaT” value was 91.1 ± 1.8% to 100.6 ± 0.4. Besides, in [18], the “Minimal inhibitory concentration against E. coli, 150 mM NaCl” value turned out to be 1.6 µM. Besides, the “Cell viability ± SD, HaCaT” value in data set [19] (64 μg/mL peptide) was found to be 100.6 ± 0.4%; in [19] (160 μg/mL peptide), 90.1 ± 4.8%. In data set [20], the “MICs, range over field isolates” value is 0.8 to 5 µg/mL. In addition, the “Cell viability ± SD, PK15” value in [21] (64 μg/mL peptide) was found to be 91.1 ± 1.8%; in data set [21] (160 μg/mL peptide), 32.7 ± 3.5%. In addition, the “Haemolytic activity against bovine erythrocytes” value amounted to 0.0 ± 0.1% in [22] (10 μg/mL, 2% (v/v) erythrocytes in PBS pH 7.4, 37 °C 1 h, mean ± SD); 0.0 ± 0.1% in data set [22] (20 μg/mL, 2% erythrocytes in PBS pH 7.4, 37 °C 1 h); 0.4 ± 0.2% in data set [22] (40 μg/mL, 2% erythrocytes in PBS pH 7.4, 37 °C 1 h); 0.8 ± 0.1% in [22] (80 μg/mL, 2% erythrocytes in PBS pH 7.4, 37 °C 1 h). Besides, the “minimum inhibitory concentration, range over strains” value in [23] was 0.2 to 10.3 µM.
Regarding Triton X-100 [Triton X-100 (1%)], in [24], the “Cell viability ± SD, HaCaT” value amounted to 13.0 ± 0.4%. In addition, the “Cell viability ± SD, PK15” value in data set [25] came to 13.3 ± 0.1%.
